{
  "source": "patent US9040528B2",
  "about": "“Chemical compounds 542” (AstraZeneca AB, priority 2008, dated 2015)",
  "data": [
    {"biological_target": "Escherichia coli DNA gyrase A/B tetramer (Escherichia coli (strain K12), UniProt P0AES4+P0AES6)", "assay": "DNA gyrase supercoiling activity fluorescence polarisation assay", "assay_type": "biochemical", "settings": "not given", "description": "(§1) DNA Gyrase Supercoiling Activity Fluorescence Polarisation Assay\n(§2) The supercoiling reactions may be quenched by the addition of 10 microliters/well of 40 nM oligodeoxynucleotide probe in 3× triplex-forming buffer consisting of 150 mM NaCl, and 150 mM sodium acetate at pH 3.5. The oligodeoxynucleotide probe may be 5′-BODIPY-FL-labeled […]. After 60 minutes, the fluorescence anisotropy of the BODIPY-FL may be measured in a Tecan Ultra plate reader, using 485 nm excitation and 535 nm emission filters equipped with polarizers. The IC50 may be determined by nonlinear regression using two control reactions. The first contains no test compound but 0.8% DMSO (100% activity) while the second control reaction contains 5 μM Ciprofloxacin and 0.8% DMSO (0% activity).", "units": {"IC50": "nM"}, "values": [
      {"smiles": "Cc1nnsc1-c1noc2c(F)c3c(cc12)CC1(C(=O)NC(=O)NC1=O)[C@H]1[C@H](C)O[C@H](C)CN31", "note": "(racemic) [Example 72, (2R,4S,4aS)-rel-11-fluoro-2,4-dimethyl-8-(4-methyl-1,2,3-thiadiazol-5-yl)-1,2,4,4a-tetrahydro-2′H,6H-spiro[1,4-oxazino[4,3-a][1,2]oxazolo[4,5-g]quinoline-5,5′-pyrimidine]-2′,4′,6′(1′H,3′H)-trione]", "IC50": 900},
      {"smiles": "C[C@@H]1CN2c3c(cc4c(-n5cncn5)noc4c3F)CC3(C(=O)NC(=O)NC3=O)[C@H]2[C@H](C)O1", "note": "(racemic) [Example 53, (2R,4S,4 aS)-rel-11-fluoro-2,4-dimethyl-8-(1H-1,2,4-triazol-1-yl)-1,2,4,4a-tetrahydro-2′H,6H-spiro[1,4-oxazino[4,3-a][1,2]oxazolo[4,5-g]quinoline-5,5′-pyrimidine]-2′,4′,6′(1′H,3′H)-trione]", "IC50": 2800}
    ]},
    {"biological_target": "Escherichia coli DNA gyrase A/B tetramer (Escherichia coli (strain K12), UniProt P0AES4+P0AES6)", "assay": "DNA gyrase supercoiling activity fluorescence polarisation assay", "assay_type": "biochemical", "settings": "5 nM enzyme, relaxed plasmid, 0.3 mM ATP, ambient temperature; read-out: E. coli DNA gyrase supercoiling IC50", "description": "as §1, §2", "units": {"IC50": "nM"}, "values": [
      {"smiles": "C[C@@H]1CN2c3c(cc4c(-c5ccco5)noc4c3F)CC3(C(=O)NC(=O)NC3=O)[C@H]2[C@H](C)O1", "note": "(relative stereo) [Example 97, (2R,4S,4aS)-rel-11-fluoro-8-(furan-2-yl)-2,4-dimethyl-2,4,4a,6-tetrahydro-1H,1′H-spiro[isoxazolo[4,5-g][1,4]oxazino[4,3-a]quinoline-5,5′-pyrimidine]-2′,4′,6′(3′H)-trione]", "IC50": 700},
      {"smiles": "C[C@@H]1CN2c3c(cc4c(C(=O)NCc5ccn(C)n5)noc4c3F)CC3(C(=O)NC(=O)NC3=O)[C@H]2[C@H](C)O1", "note": "(relative stereo) [Example 161, (2R,4S,4aS)-rel-11-fluoro-2,4-dimethyl-N-((1-methyl-1H-pyrazol-3-yl)methyl)-2′,4′,6′-trioxo-2,2′,3′,4,4a,4′,6,6′-octahydro-1H,1′H-spiro[isoxazolo[4,5-g][1,4]oxazino[4,3-a]quinoline-5,5′-pyrimidine]-8-carboxamide]", "IC50": 1300},
      {"smiles": "Cc1cc(CNc2noc3c(F)c4c(cc23)CC2(C(=O)NC(=O)NC2=O)[C@H]2[C@H](C)O[C@H](C)CN42)no1", "note": "(relative stereo) [Example 13, (2R,4S,4aS)-rel-11-fluoro-2,4-dimethyl-8-{[(5-methyl-1,2-oxazol-3-yl)methyl]amino}-1,2,4,4a-tetrahydro-2′H,6H-spiro[1,4-oxazino[4,3-a][1,2]oxazolo[4,5-g]quinoline-5,5′-pyrimidine]-2′,4′,6′(1′H,3′H)-trione]", "IC50": 1700},
      {"smiles": "C[C@@H]1CN2c3c(cc4c(C(F)(F)F)noc4c3F)CC3(C(=O)NC(=O)NC3=O)[C@H]2[C@H](C)O1", "note": "(racemic) [Example 92, (2R,4 S,4 aS)-rel-11-fluoro-2,4-dimethyl-8-(trifluoromethyl)-2,4,4a,6-tetrahydro-1H,1′H-spiro[isoxazolo[4,5-g][1,4]oxazino[4,3-a]quinoline-5,5′-pyrimidine]-2′,4′,6′(3′H)-trione]", "IC50": 1400},
      {"smiles": "COc1noc2c(F)c3c(cc12)CC1(C(=O)NC(=O)NC1=O)[C@H]1[C@H](C)O[C@H](C)CN31", "note": "(relative stereo) [Example 51, (2R,4S,4aS)-rel-11-fluoro-8-methoxy-2,4-dimethyl-1,2,4,4a-tetrahydro-2′H,6H-spiro[1,4-oxazino[4,3-a][1,2]oxazolo[4,5-g]quinoline-5,5′-pyrimidine]-2′,4′,6′(1′H,3′H)-trione]", "IC50": 1000},
      {"smiles": "C[C@@H]1CN2c3c(cc4c(C(=O)N5CCS(=O)(=O)CC5)noc4c3F)CC3(C(=O)NC(=O)NC3=O)[C@H]2[C@H](C)O1", "note": "(relative stereo) [Example 145, (2R,4S,4aS)-rel-8-[(1,1-dioxidothiomorpholin-4-yl)carbonyl]-11-fluoro-2,4-dimethyl-1,2,4,4a-tetrahydro-2′H,6H-spiro[isoxazolo[4,5-g][1,4]oxazino[4,3-a]quinoline-5,5′-pyrimidine]-2′,4′,6′(1′H,3′H)-trione]", "IC50": 5200},
      {"smiles": "C[C@@H]1CN2c3c(cc4c(-c5ccncc5)noc4c3Cl)CC3(C(=O)NC(=O)NC3=O)[C@H]2[C@H](C)O1", "note": "(relative stereo) [Example 46, (2R,4S,4aS)-rel-11-chloro-2,4-dimethyl-8-(pyridin-4-yl)-1,2,4,4a-tetrahydro-2′H,6H-spiro[1,4-oxazino[4,3-a][1,2]oxazolo[4,5-g]quinoline-5,5′-pyrimidine]-2′,4′,6′(1′H,3′H)-trione]", "IC50": 1000},
      {"smiles": "C[C@@H]1CN2c3c(cc4c(C(=O)NCC(F)F)noc4c3F)CC3(C(=O)NC(=O)NC3=O)[C@H]2[C@H](C)O1", "note": "(racemic) [Example 94, (2R,4 S,4 aS)-rel-N-(2,2-difluoroethyl)-11-fluoro-2,4-dimethyl-2′,4′,6′-trioxo-2,2′,3′,4,4a,4′,6,6′-octahydro-1H,1′H-spiro[isoxazolo[4,5-g][1,4]oxazino[4,3-a]quinoline-5,5′-pyrimidine]-8-carboxamide]", "IC50": 1600},
      {"smiles": "C[C@@H]1CN2c3c(nc4c(-c5nccs5)noc4c3Cl)CC3(C(=O)NC(=O)NC3=O)[C@H]2[C@H](C)O1", "note": "[Example 111(b), (2R,4S,4aS)-11-chloro-2,4-dimethyl-8-(thiazol-2-yl)-2,4,4a,6-tetrahydro-1H,1′H-spiro[isoxazolo[4,5-g][1,4]oxazino[4,3-a][1,5]naphthyridine-5,5′-pyrimidine]-2′,4′,6′(3′H)-trione]", "IC50": 1100},
      {"smiles": "C[C@@H]1CN2c3c(cc4c(-n5cnc(C#N)n5)noc4c3F)CC3(C(=O)NC(=O)NC3=O)[C@H]2[C@H](C)O1", "note": "(relative stereo) [Example 55, 1-[(2R,4S,4aS)-rel-11-fluoro-2,4-dimethyl-2′,4′,6′-trioxo-1,1′,2,3′,4,4′,4a,6′-octahydro-2′H,6H-spiro[1,4-oxazino[4,3-a][1,2]oxazolo[4,5-g]quinoline-5,5′-pyrimidin]-8-yl]-1H-1,2,4-triazole-3-carbonitrile]", "IC50": 2600},
      {"smiles": "C[C@@H]1CN2c3c(cc4c(C(=O)N5CCCCO5)noc4c3F)CC3(C(=O)NC(=O)NC3=O)[C@H]2[C@H](C)O1", "note": "(relative stereo) [Example 153, (2R,4S,4aS)-rel-11-fluoro-2,4-dimethyl-8-(1,2-oxazinan-2-ylcarbonyl)-1,2,4,4a-tetrahydro-2′H,6H-spiro[isoxazolo[4,5-g][1,4]oxazino[4,3-a]quinoline-5,5′-pyrimidine]-2′,4′,6′(1′H,3′H)-trione]", "IC50": 3700},
      {"smiles": "C[C@@H]1CN2c3c(cc4c(-n5cc(C(N)=O)cn5)noc4c3F)CC3(C(=O)NC(=O)NC3=O)[C@H]2[C@H](C)O1", "note": "(relative stereo) [Example 189, 1-[(2R,4S,4aS)-rel-11-fluoro-2,4-dimethyl-2′,4′,6′-trioxo-1,1′,2,3′,4,4′,4a,6′-octahydro-2′H,6H-spiro[1,4-oxazino[4,3-a][1,2]oxazolo[4,5-g]quinoline-5,5′-pyrimidin]-8-yl]-1H-pyrazole-4-carboxamide]", "IC50": 2200},
      {"smiles": "C[C@@H]1CN2c3c(cc4c(Cn5cncn5)noc4c3F)CC3(C(=O)NC(=O)NC3=O)[C@H]2[C@H](C)O1", "note": "(relative stereo) [Example 81, (2R,4S,4aS)-rel-8-((1H-1,2,4-triazol-1-yl)methyl)-11-fluoro-2,4-dimethyl-2,4,4a,6-tetrahydro-1H,1′H-spiro[isoxazolo[4,5-g][1,4]oxazino[4,3-a]quinoline-5,5′-pyrimidine]-2′,4′,6′(3′H)-trione]", "IC50": 3000},
      {"smiles": "C[C@@H]1CN2c3c(cc4c(-c5ccncn5)noc4c3Cl)CC3(C(=O)NC(=O)NC3=O)[C@H]2[C@H](C)O1", "note": "(relative stereo) [Example 43, (2R,4S,4aS)-rel-11-chloro-2,4-dimethyl-8-(pyrimidin-4-yl)-1,2,4,4a-tetrahydro-2′H,6H-spiro[1,4-oxazino[4,3-a][1,2]oxazolo[4,5-g]quinoline-5,5′-pyrimidine]-2′,4′,6′(1′H,3′H)-trione]", "IC50": 500},
      {"smiles": "C[C@H]1CN2c3c(cc4c(-c5ncccn5)noc4c3F)CC3(C(=O)NC(=O)NC3=O)[C@@H]2[C@@H](C)O1", "note": "[Example 148(a), (2S,4R,4aR)-11-fluoro-2,4-dimethyl-8-(pyrimidin-2-yl)-2,4,4a,6-tetrahydro-1H,1′H-spiro[isoxazolo[4,5-g][1,4]oxazino[4,3-a]quinoline-5,5′-pyrimidine]-2′,4′,6′(3′H)-trione]", "IC50": 83000},
      {"smiles": "C[C@@H]1CN2c3c(cc4c(NCc5ccccn5)noc4c3F)CC3(C(=O)NC(=O)NC3=O)[C@H]2[C@H](C)O1", "note": "(racemic) [Example 14, (2R,4 S,4aS)-rel-11-fluoro-2,4-dimethyl-8-[(pyridin-2-ylmethyl)amino]-1,2,4,4a-tetrahydro-2′H,6H-spiro[1,4-oxazino[4,3-a][1,2]oxazolo[4,5-g]quinoline-5,5′-pyrimidine]-2′,4′,6′(1′H,3′H)-trione]", "IC50": 2000},
      {"smiles": "C[C@H]1CN2c3c(cc4c(C(=O)NCC(F)F)noc4c3F)CC3(C(=O)NC(=O)NC3=O)[C@@H]2[C@@H](C)O1", "note": "[Example 94(a), (2S,4R,4aR)—N-(2,2-difluoroethyl)-11-fluoro-2,4-dimethyl-2′,4′,6′-trioxo-2,2′,3′,4,4a,4′,6,6′-octahydro-1H,1′H-spiro[isoxazolo[4,5-g][1,4]oxazino[4,3-a]quinoline-5,5′-pyrimidine]-8-carboxamide]", "IC50": 51000},
      {"smiles": "C[C@@H]1CN2c3c(cc4c(N)noc4c3F)CC3(C(=O)NC(=O)NC3=O)[C@H]2[C@H](C)O1", "note": "(relative stereo) [Example 1, (2R,4S,4aS)-rel-8-amino-11-fluoro-2,4-dimethyl-1,2,4,4a-tetrahydro-2′H,6H-spiro[isoxazolo[4,5-g][1,4]oxazino[4,3-a]quinoline-5,5′-pyrimidine]-2′,4′,6′(1′H,3′H)-trione]", "IC50": 500}
    ]}
  ]
}
